Key:
CCR3 = biological target: T1, CCR3 (Homo sapiens, UniProt P51677); assay: NanoBRET screen HiBiT-CCR3 in HEK293; format: binding
T1 construct: purchased Promega (in-house HiBiT-GPCR construct library, NanoBRET)
T1 sequence (P51677 1-355): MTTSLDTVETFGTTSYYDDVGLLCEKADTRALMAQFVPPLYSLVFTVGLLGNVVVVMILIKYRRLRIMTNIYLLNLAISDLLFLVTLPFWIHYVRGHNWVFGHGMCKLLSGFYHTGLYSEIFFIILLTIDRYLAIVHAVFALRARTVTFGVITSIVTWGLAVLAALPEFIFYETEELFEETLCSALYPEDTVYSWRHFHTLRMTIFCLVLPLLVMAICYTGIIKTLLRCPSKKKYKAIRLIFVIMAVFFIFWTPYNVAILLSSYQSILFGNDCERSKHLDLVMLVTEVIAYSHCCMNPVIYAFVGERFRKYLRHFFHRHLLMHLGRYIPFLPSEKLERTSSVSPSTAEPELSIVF
Description: (§1) Each tracer candidate was screened across the entire library of HiBiT-GPCR constructs using NanoBRET as the detection modality. As depicted in Figure 4A, the specificity of interactions was evaluated through decrease in BRET due to competitive displacement of a bound tracer by excess parental compound. Each tracer was analyzed for binding to each HiBiT-GPCR fusion in the absence and in the presence of competing parental compound. Briefly, HEK293 cells were transfected with HiBiT-GPCR constructs diluted into promoterless DNA to reduce expression and maximize translocation to the cell surface. Each tracer candidate was then screened at concentrations of 1 μM and 0.1 μM across cells expressing these fusions. Cells were treated for 1.5 h with tracer either alone or in the presence of 20 μM competing parental compound (i.e., control). BRET was measured upon addition of purified LgBiT and subsequent complementation with HiBiT genetically fused to a GPCR. The specificity of interactions was assessed through a decrease in BRET signal due to competitive displacement of the bound tracer. To further gauge the robustness of these interactions, the fold response over the control (i.e., BRETtracer/BRETcontrol) was calculated. We chose a 1.5-fold response, which translates to ≥7-fold signal over noise as the minimal threshold required to score an interaction as positive. […]. Below we highlight the screening results obtained for our exemplary fluorescent tracers based on Clozapine, Amitriptyline and AZD1283.
(§2) HiBiT-GPCR DNA constructs were diluted in 10 mM Tris pH 8 to a final concentration of 0.01 μg/μL, arrayed in 96-well plates and stored at −20 °C. For transfection, HEK293 cells were suspended in Opti-MEM (without phenol red) supplemented with 2% fetal bovine serum (Seradigm) and 100 units/mL penicillin–streptomycin (Gibco) at a final concentration of 220,000 cells/mL and dispensed into white 96-well plates at 90 μL/well. Subsequent transfections and screens were carried using an Agilent Bravo Automated Liquid Handling Platform. First, the 96-well HiBiT DNA arrays were diluted 25-fold in Opti-MEM (without serum or phenol red) to a final concentration of 0.0004 μg/μL and 20 μL of the diluted DNAs were transferred into new 96-well plates. Next, promoterless carrier DNA (1 μg/μL) was diluted 25-fold (0.04 μg/μL) and then dispensed into the diluted arrays at 20 μL/well. Following brief mixing, Viafect transfection reagent (Promega) diluted 16-fold into Opti-MEM was dispensed into the plates at 40 μL/well. After mixing by pipetting, plates were incubated for 10 min on the pipetting station deck. The DNA-transfection reagent complexes were then added to plates containing cells. To facilitate the screen, 10 μL of DNA-transfection reagent complexes were added in duplicates to the top 4 and bottom 4 rows, resulting in two identical 48-well arrays per plate. Plates with transfected cells were incubated for 18–20 h at 37 °C/5% CO2. A screen of each tracer across the entire library using two different concentrations requires duplicate plates of transfected cells. Depending on the number of tracers being screened, transfections can be scaled up using the same ratios. The next day, for each tracer, four 20× screening solutions in tracer dilution buffer (Promega) were prepared: two duplicates at final concentration of 20 μM and two duplicates at a final concentration of 2 μM. A competing unmodified compound was added to one of each duplicate at a final concentration of 400 μM. The four resulting solutions were diluted 4-fold in Opti-MEM without serum or phenol red to generate 5× solutions (5 µM and 0.5 µM tracer +/− 100 μM competing compound). To screen the library, a BioTek MultiFlo FX liquid dispenser was used to dispense 22.5 µL of tracer solution to the top 4 rows and 22.5 µL tracer + competing compound solution to the 4 bottom rows. Plates were briefly mixed on an orbital shaker and incubated for 1.5 h at room temperature. […]

CCR9 = biological target: T2, CCR9 (Homo sapiens, UniProt P51686); assay: NanoBRET screen HiBiT-CCR9 in HEK293; format: binding
T2 construct: purchased Promega (in-house HiBiT-GPCR construct library, NanoBRET)
T2 sequence (P51686 1-369): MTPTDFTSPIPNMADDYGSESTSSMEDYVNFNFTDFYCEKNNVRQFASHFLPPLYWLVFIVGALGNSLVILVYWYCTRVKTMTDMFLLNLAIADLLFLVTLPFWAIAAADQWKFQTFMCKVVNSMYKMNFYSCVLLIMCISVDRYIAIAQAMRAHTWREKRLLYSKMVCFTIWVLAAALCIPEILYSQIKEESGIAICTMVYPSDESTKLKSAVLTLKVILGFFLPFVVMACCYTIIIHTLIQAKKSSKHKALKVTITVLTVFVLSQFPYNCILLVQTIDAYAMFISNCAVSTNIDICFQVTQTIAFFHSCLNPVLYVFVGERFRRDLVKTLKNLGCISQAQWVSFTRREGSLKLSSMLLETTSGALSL
Description: as §1, §2

[1] = tracer at 1μM, listed as amitriptyline-b-2-NB590

SMILES: CCOC(=O)c1cc(C#N)c(N2CCC(C(=O)NS(=O)(=O)Cc3ccccc3/C=C/C(=O)NCCNC(=O)CCc3ccc4n3[B-](F)(F)[N+]3=C(c5ccc[nH]5)C=CC3=C4)CC2)nc1C [AZD1283-1-NB590]
- NanoBRET Fold Response (CCR3; CCR3, 0.1μM): 0.96
- NanoBRET Fold Response (CCR3; CCR3, 1μM): 1.02
- NanoBRET Fold Response (CCR9; CCR9, 0.1μM): 1.13
- NanoBRET Fold Response (CCR9; CCR9, 1μM): 1.10

SMILES: N#CN=C(NCCCOc1cccc(CN2CCCCC2)c1)NCCNC(=O)CCOCCOCCOCCOCCNC(=O)CCc1ccc2n1[B-](F)(F)[N+]1=C(c3ccc[nH]3)C=CC1=C2 [Aminopotentidine-2-NB590]
- NanoBRET Fold Response (CCR3; CCR3, tracer 0.1μM): 0.95
- NanoBRET Fold Response (CCR3; CCR3, tracer 1μM): 0.89
- NanoBRET Fold Response (CCR9; CCR9, tracer 0.1μM): 1.09
- NanoBRET Fold Response (CCR9; CCR9, tracer 1μM): 1.11

SMILES: CN(C)CCC=C1c2ccccc2CCc2ccc(C(=O)NCCNC(=O)CCOCCOCCOCCOCCNC(=O)CCc3ccc4n3[B-](F)(F)[N+]3=C(c5ccc[nH]5)C=CC3=C4)cc21 [Amitriptyline-a-2-NB590]
- NanoBRET Fold Response (CCR3; tracer at 0.1μM): 1.02
- NanoBRET Fold Response (CCR3; tracer at 1μM): 0.95
- NanoBRET Fold Response (CCR9; tracer at 0.1μM): 0.99
- NanoBRET Fold Response (CCR9; tracer at 1μM): 1.05

SMILES: CN(C)CCC=C1c2ccccc2CCc2ccc(C(=O)NCCNC(=O)CCOCCOCCOCCOCCNC(=O)CCc3ccc4n3[B-](F)(F)[N+]3=C(c5ccc[nH]5)C=CC3=C4)cc21 [Amitriptyline-b-2-NB590]
- NanoBRET Fold Response (CCR3; tracer at 0.1μM): 0.90
- NanoBRET Fold Response (CCR3; [1]): 1.27
- NanoBRET Fold Response (CCR9; tracer at 0.1μM, listed as amitriptyline-b-2-NB590): 0.81
- NanoBRET Fold Response (CCR9; [1]): 0.84

SMILES: CN(CCC=C1c2ccccc2CCc2ccccc21)C(=O)CCOCCOCCOCCOCCNC(=O)CCc1ccc2n1[B-](F)(F)[N+]1=C(c3ccc[nH]3)C=CC1=C2 [Amitriptyline-e-2-NB590]
- NanoBRET Fold Response (CCR3; tracer at 1μM): 0.86
- NanoBRET Fold Response (CCR9; tracer at 1μM): 0.95

SMILES: COc1ccc2c(n1)c(CCNC(C)=O)cn2CCNC(=O)CCc1ccc2n1[B-](F)(F)[N+]1=C(c3ccc[nH]3)C=CC1=C2 [Azamelatonin-1-NB590]
- NanoBRET Fold Response (CCR3; 0.1μM tracer): 1.27
- NanoBRET Fold Response (CCR3; 1μM tracer): 0.96
- NanoBRET Fold Response (CCR9; 0.1μM tracer): 1.05
- NanoBRET Fold Response (CCR9; 1μM tracer): 1.04

SMILES: COc1ccc2[nH]c(-c3ccc(CNC(=O)CCOCCOCCOCCOCCNC(=O)CCc4ccc5n4[B-](F)(F)[N+]4=C(c6ccc[nH]6)C=CC4=C5)cc3)c(CCNC(C)=O)c2n1 [AzomelatoninICO9-2-NB590]
- NanoBRET Fold Response (CCR3; 0.1μM tracer): 1.40
- NanoBRET Fold Response (CCR3; 1μM tracer): 1.25
- NanoBRET Fold Response (CCR9; 0.1μM tracer): 0.97
- NanoBRET Fold Response (CCR9; 1μM tracer): 0.89

SMILES: O=C(CCOCCOCCOCCOCCNC(=O)CCc1ccc2n1[B-](F)(F)[N+]1=C(c3ccc[nH]3)C=CC1=C2)NCCCN1CCN(C2=Nc3cc(Cl)ccc3Nc3ccccc32)CC1 [Clozapine-a-2-NB590]
- NanoBRET Fold Response (CCR3; CCR3, 0.1μM tracer): 0.95
- NanoBRET Fold Response (CCR3; CCR3, 1μM tracer): 0.78
- NanoBRET Fold Response (CCR9; CCR9, 0.1μM tracer): 1.03
- NanoBRET Fold Response (CCR9; CCR9, 1μM tracer): 1.05

SMILES: CN1CCN(C2=Nc3cc(Cl)ccc3Nc3ccc(CNC(=O)CCOCCOCCOCCOCCNC(=O)CCc4ccc5n4[B-](F)(F)[N+]4=C(c6ccc[nH]6)C=CC4=C5)cc32)CC1 [Clozapine-b-2-NB590]
- NanoBRET Fold Response (CCR3; CCR3, 0.1μM tracer): 0.98
- NanoBRET Fold Response (CCR3; CCR3, 1μM tracer): 1.00
- NanoBRET Fold Response (CCR9; CCR9, 0.1μM tracer): 1.01
- NanoBRET Fold Response (CCR9; CCR9, 1μM tracer): 0.92

SMILES: CN1CCN(C2=Nc3cc(Cl)ccc3N(CC(=O)NCCOCCOCCOCCOCCNC(=O)CCc3ccc4n3[B-](F)(F)[N+]3=C(c5ccc[nH]5)C=CC3=C4)c3ccccc32)CC1 [Clozapine-c-2-NB590]
- NanoBRET Fold Response (CCR3; CCR3, 0.1μM tracer): 0.97
- NanoBRET Fold Response (CCR3; CCR3, 1μM tracer): 0.85
- NanoBRET Fold Response (CCR9; CCR9, 0.1μM tracer): 1.02
- NanoBRET Fold Response (CCR9; CCR9, 1μM tracer): 0.87

SMILES: O=C(CCOCCOCCOCCOCCNC(=O)CCc1ccc2n1[B-](F)(F)[N+]1=C(c3ccc[nH]3)C=CC1=C2)NCCCN1CCN(C2=Nc3ccccc3Oc3ccc(Cl)cc32)CC1 [Loxapine-a-2-NB590]
- NanoBRET Fold Response (CCR3; CCR3, tracer 0.1μM): 1.02
- NanoBRET Fold Response (CCR3; CCR3, tracer 1μM): 1.02
- NanoBRET Fold Response (CCR9; CCR9, tracer 0.1μM): 1.02
- NanoBRET Fold Response (CCR9; CCR9, tracer 1μM): 0.91

SMILES: COc1ccccc1N1CCN(CCCCN2C(=O)c3ccc(CNC(=O)CCOCCOCCOCCOCCNC(=O)CCc4ccc5n4[B-](F)(F)[N+]4=C(c6ccc[nH]6)C=CC4=C5)cc3C2=O)CC1 [NAN-190-2-NB590]
- NanoBRET Fold Response (CCR3; CCR3, tracer 0.1μM): 1.08
- NanoBRET Fold Response (CCR3; CCR3, tracer 1μM): 1.11
- NanoBRET Fold Response (CCR9; CCR9, tracer 0.1μM): 0.98
- NanoBRET Fold Response (CCR9; CCR9, tracer 1μM): 0.99

— PMC8151276, “An Integrated Approach toward NanoBRET Tracers for Analysis of GPCR Ligand Engagement” (Molecules, 2021)
